The structures appear in SMILES notation.

This series is described as follows: gradient 5% acetonitrile 3 min, to 50% in 2 min, to 85% in 15 min, held 3 min, 100 µL/min. The following applies: column: Zorbax Extend-C18 2.1 x 50 mm; eluents: water / acetonitrile, 0.1% formic acid. In outline: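 The mobile phases were water and acetonitrile, each with 0.1% formic acid, pumped at 100 μL/min through a Zorbax Extend-C18 column (2.1 × 50 mm, 1.8 μm). Pure standards were injected as mixtures of ~100 molecules and detected by a quadrupole time-of-flight mass spectrometer in positive and negative ionization mode. Retention time came from computationally picked adduct peaks, each inspected by hand.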
Take `COCCCNC(=O)c1csc(N2CCN(c3ccc(F)cc3)CC2)n1`: the RP-LC retention time turned out to be 915 s. In the case of `CCN1C(=O)COc2ccc(-c3csc(NC(=O)c4cccc(C)c4)n3)cc21` it was 1050 s; in that of `O=C(CSCCc1ccccn1)Nc1c(F)c(F)c(F)c(F)c1F`, 643 s; in that of `COc1ccc(Cc2nn3c(CSc4ccccc4)nnc3s2)cc1OC`, 865 s. Next, `CCn1ccc2oc(C)c(C(=O)NCc3cccc(F)c3)c2c1=O`: 947 s; `Cc1ccc(-c2nc(-c3ccc4c(c3)nnn4CCN(C)C)no2)cc1F`: 708 s.

With `Cc1csc(-c2ccc(N3CCN(C(=O)c4cccc5[nH]ccc45)CC3)nc2)n1`, the RP-LC retention time came out at 756 s. `CCOC(=O)c1noc2nc(C)nc(Nc3ccccc3)c12` yielded an RP-LC retention time of 1010 s. Next, `CCN(CCNS(=O)(=O)c1ccc2[nH]c(=O)ccc2c1)Cc1ccccc1`: 597 s; `CCN(CC)S(=O)(=O)c1ccc(-n2cnc(C(=O)NCc3ccc(OC)c(OC)c3)c2)cc1`: 766 s. Next, `O=C(Cn1nc2n(c1=O)CCCC2)Nc1ccccc1`: 633 s; `O=c1oc(-c2ccccc2)c(-c2ccccc2)c2ccccc12`: 1030 s; `OC[C@H]1O[C@@H](n2cnc3c(N[C@H]4CCC[C@@H]4O)ncnc32)[C@@H](O)C1O` (stereo partly drawn): 590 s.

Compound `CCOc1ccc(-c2noc(Cn3c(=O)n(CCCOC)c(=O)c4ccccc43)n2)cc1OC` gave an RP-LC retention time of 956 s. `Cc1c(-c2nnc(C(=O)NCCCN3CCCCCC3)o2)oc2ccccc12` displayed an RP-LC retention time of 674 s. In turn, `Cc1cc(C)cc(OCC(=O)N(Cc2ccc(Br)o2)C2CCS(=O)(=O)C2)c1` (stereo not drawn) had an RP-LC retention time of 966 s. Next, `COCCNc1ncc(C(=O)O)c(-c2cccc(C)c2)n1`: 700 s. In the case of `COc1cccc(S(=O)(=O)N2CCOCC2)c1`, the RP-LC retention time is 708 s. In the case of `c1ccc(-c2ccc(C(c3ccccc3)n3ccnc3)cc2)cc1` (stereo not drawn) it was 906 s; in that of `COc1ccc(S(=O)(=O)N2CCCC(C(=O)Nc3cccc(Br)c3)C2)cc1Cl` (stereo not drawn), 1110 s; in that of `CCCN1CCN(CCNC(=O)C2CCCN(c3ncc(-c4ccc(F)cc4)cn3)C2)CC1` (stereo not drawn), 641 s.

Compound `COc1ccc(OC)c2[nH]c(C(=O)N3CCCC3)cc12` showed an RP-LC retention time of 823 s. Next, `CCN(C(=O)CC(=O)OC)c1nc(-c2ccc(C)cc2)cs1`: 1070 s; `COc1ccc(OC)c(NC(=O)N2CCC3(CC2)Nc2ccccc2-n2cccc23)c1`: 1040 s; `Cc1cccc(N2CCN(CC(O)c3ccc4c(c3)OCO4)CC2)c1` (stereo not drawn): 669 s. In the case of `Cc1nc(N2CCOCC2)cc(N2CCN(C(=O)c3cnn(-c4ccccc4)n3)CC2)n1` it was 587 s. In the case of `CCOc1ccc(-c2csc(C)n2)cc1S(=O)(=O)NCc1ccccc1` it was 996 s; in that of `Cc1nc([C@@H]2CN(C(=O)c3ccc(Cl)s3)C[C@H]2C(N)=O)n[nH]1`, 608 s. As for `CCc1nncn1C1CCN(S(=O)(=O)c2ccc(C)cc2C)CC1`, the RP-LC retention time was found to be 738 s. In the case of `COc1cc(NC(=O)C2CCCN(c3nnc4ccccn34)C2)cc(OC)c1OC` (stereo not drawn) it was 634 s; in that of `O=C(NCCn1c(=O)n(Cc2ccccc2)c2cccnc21)c1ccc2c(c1)OCO2`, 773 s; in that of `Cc1nn(-c2ccc(C(=O)NCc3ccco3)cc2)c2c1C(=O)CC(C)(C)C2`, 756 s. In the case of `O=C(CSc1ccncc1)N1CCc2cc(-c3csc(C4CC4)n3)ccc21` it was 723 s.

The values above are taken from the METLIN SMRT retention time set (Domingo-Almenara et al. 2019).
